Assay results from ChEMBL document CHEMBL4371066, “Synthesis and characterization of a photoresponsive doxorubicin/combretastatin A4 hybrid prodrug” (Bioorg Med Chem Lett, 2019).
Active and inactive are the calls of the source. The rule behind the calls is not given here.

Columns and labels:
Type in all cases: functional, cell-based
MDA-MB-231 [1] = test: Phototoxicity against human MDA-MB-231 cells assessed as reduction in cell viability at 4 to 8 uM irradiated with 50 mW cm'-2 UV light for 6 mins and measured after 24 hrs by CCK8 assay
MDA-MB-231 [2] = test: Cytotoxicity against human MDA-MB-231 cells assessed as reduction in cell viability at 4 to 8 uM measured after 24 hrs by CCK8 assay
MDA-MB-231 [3] = test: Phototoxicity against human MDA-MB-231 cells assessed as reduction in cell viability at 2 to 8 uM irradiated with 50 mW cm'-2 UV light for 6 mins and measured after 24 hrs by CCK8 assay
MDA-MB-231 [4] = test: Cytotoxicity against human MDA-MB-231 cells assessed as reduction in cell viability at 2 to 8 uM measured after 24 hrs by CCK8 assay

Compound	Activity (MDA-MB-231 [1])	Activity (MDA-MB-231 [2])	Activity (MDA-MB-231 [3])	Activity (MDA-MB-231 [4])
COc1cccc2c1C(=O)c1c(O)c3c(c(O)c1C2=O)C[C@@](O)(C(=O)CO)C[C@@H]3O[C@H]1C[C@H](N)[C@H](O)[C@H](C)O1	Active	Active	–	–
COc1ccc(/C=C\c2cc(OC)c(OC)c(OC)c2)cc1O	–	–	Active	Active
